According to patent US20240409585A1, “MACROCYCLIC IMMUNOMODULATORS” (priority 2021, published 2024):
Numbered stars: 1 amine (or outer) side, 2 acyl side, 3 side chain; on linkers, the order of the positions; unused ones are H or OH. Bridge positions count the residues as written; N and C are the ends. Square brackets hold non-standard residues; d marks the D form. Peptide text beside a SMILES is read from it. * marks the point of attachment. ξ: configuration not given here. X29 = O=C([C@H](Cc1ccc(-c2cc(F)cc(F)c2)cc1)N[*:1])[*:2]; Phe(3-CF3) = N[C@@H](Cc1cccc(C(F)(F)F)c1)C(=O)O; Ala(morpholin-4-yl) = N[C@@H](CN1CCOCC1)C(=O)O; Phe(4-COOH) = N[C@@H](Cc1ccc(C(=O)O)cc1)C(=O)O; Bip = N[C@@H](Cc1ccc(-c2ccccc2)cc1)C(=O)O; Phe(3-CN) = N#Cc1cccc(C[C@H](N)C(=O)O)c1; Phe(3-Cl) = N[C@@H](Cc1cccc(Cl)c1)C(=O)O; Phe(3-OMe) = COc1cccc(C[C@H](N)C(=O)O)c1; Phe(4-Cl) = N[C@@H](Cc1ccc(Cl)cc1)C(=O)O; Phe(3-Me) = Cc1cccc(C[C@H](N)C(=O)O)c1; Val(3-OH) = CC(C)(O)[C@H](N)C(=O)O; Cha = N[C@@H](CC1CCCCC1)C(=O)O; Cit = NC(=O)NCCC[C@H](N)C(=O)O; Ile(3ξ) = CCC(C)[C@H](N)C(=O)O; Thr(3ξ) = CC(O)[C@H](N)C(=O)O; Carboxymethyl = O=C(O)C*; NMeA = CN[C@@H](C)C(=O)O; Orn = NCCC[C@H](N)C(=O)O; Dab = NCC[C@H](N)C(=O)O; Dap = NC[C@H](N)C(=O)O

What follows are compounds tested against T1, PE-labeled human PD-L1-Ig binding to Jurkat cell line over-expressing human PD-1 (Jurkat-PD-1) (Homo sapiens, UniProt Q15116) (assay: Jurkat-PD-1 Cell Binding High-Content Screening Assay (CBA): Method 1). Details: Jurkat-hPD-1 cells, PE-labeled PD-L1-Ig 20 nM final; read-out: Jurkat HPDL1 PD1 IC50 (uM) (Method 1).
T1 construct: expressed in transfected cells; host or cells: Jurkat
T1 sequence (Q15116 25-288): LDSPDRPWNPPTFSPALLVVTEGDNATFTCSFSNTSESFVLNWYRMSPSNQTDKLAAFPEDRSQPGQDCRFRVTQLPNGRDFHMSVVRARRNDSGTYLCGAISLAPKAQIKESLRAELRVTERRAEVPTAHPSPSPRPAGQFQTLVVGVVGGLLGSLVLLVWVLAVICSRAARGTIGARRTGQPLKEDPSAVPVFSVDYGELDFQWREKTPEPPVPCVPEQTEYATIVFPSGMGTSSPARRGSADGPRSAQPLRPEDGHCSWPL

Row | SMILES | IC50 [µM]
1 | CC(C)C[C@@H]1NC(=O)[C@H](CCCNC(=N)N)NC(=O)[C@@H](CC(C)C)NC(=O)[C@H](C)N(C)C(=O)[C@H](CCCNC(=N)N)NC(=O)[C@H](Cc2ccc(-c3ccccc3)cc2)NC(=O)[C@H](C(C)C)NC(=O)[C@H](Cc2c[nH]c3ccccc23)NC(=O)[C@H](CC(=O)O)NC(=O)[C@H](Cc2ccc(Cl)cc2)NC(=O)[C@H](Cc2ccccc2)NC(=O)CSC[C@@H](C(=O)N[C@@H](C)C(N)=O)NC(=O)[C@H]([C@@H](C)O)NC(=O)[C@H](C(C)C)NC1=O [Compound 1081] ({CH2CO}-F[Phe(4-Cl)]DWV[Bip]R[NMeA][dL]RLVTCA-NH2; thioether N-14) | 0.06
2 | CCC(C)[C@@H]1NC(=O)[C@H](Cc2ccc(-c3ccccc3)cc2)NC(=O)[C@H](CC(C)C)NC(=O)[C@H](Cc2c[nH]c3ccccc23)NC(=O)[C@H](CC(=O)O)NC(=O)[C@H](Cc2ccc(OCC(=O)O)cc2)NC(=O)[C@H](C(C)O)NC(=O)CSC[C@@H](C(=O)N[C@@H](CC(N)=O)C(=O)O)NC(=O)[C@H](CC(=O)O)NC(=O)[C@H](C(C)C)NC(=O)[C@H](CC(C)C)NC(=O)[C@H](CCN)NC(=O)[C@@H](CC(C)C)NC(=O)[C@H](C)N(C)C1=O (stereo partly drawn) [Compound 2225] ({CH2CO}-[Thr(3ξ)]Y(Carboxymethyl)DWL[Bip][Ile(3ξ)][NMeA][dL][Dab]LVDCN-OH; thioether N-14) | 0.08
3 | CCC(C)[C@@H]1NC(=O)[C@H](Cc2ccc(-c3ccccc3)cc2)NC(=O)[C@H](C(C)C)NC(=O)[C@H](Cc2c[nH]c3ccccc23)NC(=O)[C@H](CC(=O)O)NC(=O)[C@H](Cc2ccc(OCC(=O)O)cc2)NC(=O)[C@H](C(C)O)NC(=O)CSC[C@@H](C(N)=O)NC(=O)[C@H](CO)NC(=O)[C@H](C(C)C)NC(=O)[C@H](CC2CCCCC2)NC(=O)[C@H](CCN)NC(=O)[C@@H](CC(C)C)NC(=O)[C@H](C)N(C)C1=O (stereo partly drawn) [Compound 2251] ({CH2CO}-[Thr(3ξ)]Y(Carboxymethyl)DWV[Bip][Ile(3ξ)][NMeA][dL][Dab][Cha]VSC-NH2; thioether N-14) | 0.02
4 | Cc1cccc(C[C@@H]2NC(=O)[C@H](CC(=O)O)NC(=O)[C@H](Cc3ccc(C(=O)O)cc3)NC(=O)[C@H](C(C)O)NC(=O)CSC[C@@H](C(=O)N[C@@H](CCN)C(N)=O)NC(=O)[C@H](CO)NC(=O)[C@H](C(C)(C)O)NC(=O)[C@H](CC3CCCCC3)NC(=O)[C@H](CCN)NC(=O)[C@@H](CC(C)C)NC(=O)[C@H](C)N(C)C(=O)[C@H](Cc3ccc(OCC(=O)O)cc3)NC(=O)[C@H](Cc3ccc(-c4ccccc4)cc3)NC(=O)[C@H](Cc3ccc(OCC(=O)O)cc3)NC2=O)c1 (stereo partly drawn) [Compound 2151] ({CH2CO}-[Thr(3ξ)][Phe(4-COOH)]D[Phe(3-Me)]Y(Carboxymethyl)[Bip]Y(Carboxymethyl)[NMeA][dL][Dab][Cha][Val(3-OH)]SC[Dab]-NH2; thioether N-14) | 0.02
5 | CC(C)C[C@H]1NC(=O)[C@H](C)N(C)C(=O)[C@H](CCC(N)=O)NC(=O)[C@H](Cc2ccc(-c3ccccc3)cc2)NC(=O)[C@H](Cc2ccc(C(=O)O)cc2)NC(=O)[C@H](Cc2cccc(C(F)(F)F)c2)NC(=O)[C@H](CC(=O)O)NC(=O)[C@H](Cc2ccc(OCC(=O)O)cc2)NC(=O)[C@H](CN2CCOCC2)NC(=O)CSC[C@@H](C(=O)N[C@@H](CCN)C(N)=O)NC(=O)[C@H](CCCN)NC(=O)[C@H](C(C)C)NC(=O)[C@H](CC2CCCCC2)NC(=O)[C@H](CCN)NC1=O [Example 2272] ({CH2CO}-[Ala(morpholin-4-yl)]Y(Carboxymethyl)D[Phe(3-CF3)][Phe(4-COOH)][Bip]Q[NMeA][dL][Dab][Cha]V[Orn]C[Dab]-NH2; thioether N-14) | 0.11
6 | COc1cccc(C[C@@H]2NC(=O)[C@H](CC(=O)O)NC(=O)[C@H](Cc3ccc(OCC(=O)O)cc3)NC(=O)[C@H](CN)NC(=O)CSC[C@@H](C(=O)N[C@@H](C)C(N)=O)NC(=O)[C@H]([C@@H](C)O)NC(=O)[C@H](C(C)C)NC(=O)[C@H](CC(C)C)NC(=O)[C@H](CCN)NC(=O)[C@@H](CC(C)C)NC(=O)[C@H](C)N(C)C(=O)[C@H](CCCNC(N)=O)NC(=O)[C@H](Cc3ccc(-c4ccccc4)cc3)NC(=O)[C@H](C(C)C)NC2=O)c1 [Compound 1448] ({CH2CO}-[Dap]Y(Carboxymethyl)D[Phe(3-OMe)]V[Bip][Cit][NMeA][dL][Dab]LVTCA-NH2; thioether N-14) | 0.06
7 | CC(C)C[C@@H]1NC(=O)[C@H](CCCNC(=N)N)NC(=O)[C@@H](C(C)C)NC(=O)[C@H](C)N(C)C(=O)[C@H](CCCNC(=N)N)NC(=O)[C@H](Cc2ccc(-c3ccccc3)cc2)NC(=O)[C@H](C(C)C)NC(=O)[C@H](Cc2c[nH]c3ccccc23)NC(=O)[C@H](CC(=O)O)NC(=O)[C@H](Cc2ccc(O)cc2)NC(=O)[C@H](Cc2ccccc2)NC(=O)CSC[C@@H](C(=O)N[C@@H](C)C(N)=O)NC(=O)[C@H]([C@@H](C)O)NC(=O)[C@H](C(C)C)NC1=O [Compound 1060] ({CH2CO}-FYDWV[Bip]R[NMeA][dV]RLVTCA-NH2; thioether N-14) | 0.11
8 | CC(C)C[C@@H]1NC(=O)[C@H](Cc2c[nH]c3ccccc23)NC(=O)[C@H](CC(=O)O)NC(=O)[C@H](Cc2ccc(O)cc2)NC(=O)[C@H](Cc2ccccc2)NC(=O)CSC[C@@H](C(=O)N[C@@H](C)C(N)=O)NC(=O)[C@H](CO)NC(=O)[C@H](C(C)C)NC(=O)[C@H](CC(C)C)NC(=O)[C@H](CC(N)=O)NC(=O)[C@@H](C(C)C)NC(=O)[C@H](C)N(C)C(=O)[C@H](C(C)C)NC(=O)[C@H](Cc2ccc(-c3ccccc3)cc2)NC1=O [Compound 1771] ({CH2CO}-FYDWL[Bip]V[NMeA][dV]NLVSCA-NH2; thioether N-14) | 0.04
9 | CC(C)C[C@H]1NC(=O)[C@H](C)N(C)C(=O)[C@H](C(C)C)NC(=O)[C@H](Cc2ccc(-c3ccccc3)cc2)NC(=O)[C@H](C(C)C)NC(=O)[C@H](Cc2c[nH]c3ccccc23)NC(=O)[C@H](CC(=O)O)NC(=O)[C@H](Cc2ccc(O)cc2)NC(=O)[C@H](CC(N)=O)NC(=O)CSC[C@@H](C(=O)N[C@@H](C)C(N)=O)NC(=O)[C@H]([C@@H](C)O)NC(=O)[C@H](C(C)C)NC(=O)[C@H](CC2CCCCC2)NC(=O)[C@H](CCCNC(=N)N)NC1=O [Compound 1294] ({CH2CO}-NYDWV[Bip]V[NMeA][dL]R[Cha]VTCA-NH2; thioether N-14) | 0.3
10 | CC(C)C[C@@H]1NC(=O)[C@H](CCN)NC(=O)[C@@H](CC(C)C)NC(=O)[C@H](C)N(C)C(=O)[C@H](CCCN)NC(=O)[C@H](Cc2ccc(-c3ccccc3)cc2)NC(=O)[C@H](C(C)C)NC(=O)[C@H](Cc2c[nH]c3ccccc23)NC(=O)[C@H](CC(=O)O)NC(=O)[C@H](Cc2ccc(O)cc2)NC(=O)[C@H](Cc2ccccc2)NC(=O)CSC[C@@H](C(=O)N[C@@H](C)C(N)=O)NC(=O)[C@H]([C@@H](C)O)NC(=O)[C@H](C(C)C)NC1=O [Compound 1121] ({CH2CO}-FYDWV[Bip][Orn][NMeA][dL][Dab]LVTCA-NH2; thioether N-14) | 0.06
11 | CC(C)C[C@@H]1NC(=O)[C@H](Cc2c[nH]c3ccccc23)NC(=O)[C@H](CC(=O)O)NC(=O)[C@H](Cc2cccc(C#N)c2)NC(=O)[C@H](Cc2ccccc2)NC(=O)CSC[C@@H](C(=O)N[C@@H](C)C(N)=O)NC(=O)[C@H](CO)NC(=O)[C@H](C(C)C)NC(=O)[C@H](CC(C)C)NC(=O)[C@H](CC(N)=O)NC(=O)[C@@H](C)NC(=O)[C@H](C)N(C)C(=O)[C@H](C(C)C)NC(=O)[C@H](Cc2ccc(-c3ccccc3)cc2)NC1=O [Compound 1723] ({CH2CO}-F[Phe(3-CN)]DWL[Bip]V[NMeA][dA]NLVSCA-NH2; thioether N-14) | 0.01
12 | CC(C)C[C@@H]1NC(=O)[C@H](CCCNC(=N)N)NC(=O)[C@@H](CC(C)C)NC(=O)[C@H](C)N(C)C(=O)[C@H](CCCNC(=N)N)NC(=O)[C@H](Cc2ccc(-c3cc(F)cc(F)c3)cc2)NC(=O)[C@H](C(C)C)NC(=O)[C@H](Cc2c[nH]c3ccccc23)NC(=O)[C@H](CC(=O)O)NC(=O)[C@H](Cc2ccc(O)cc2)NC(=O)[C@H](Cc2ccccc2)NC(=O)CSC[C@@H](C(=O)N[C@@H](C)C(N)=O)NC(=O)[C@H]([C@@H](C)O)NC(=O)[C@H](C(C)C)NC1=O [Compound 1068] ({CH2CO}-FYDWV[X29]R[NMeA][dL]RLVTCA-NH2; thioether N-14) | 0.17
13 | COc1cccc(C[C@@H]2NC(=O)[C@H](CC(N)=O)NC(=O)CSC[C@@H](C(=O)N[C@@H](C)C(N)=O)NC(=O)[C@H]([C@@H](C)O)NC(=O)[C@H](C(C)C)NC(=O)[C@H](CC(C)C)NC(=O)[C@H](CCN)NC(=O)[C@@H](CC(C)C)NC(=O)[C@H](C)N(C)C(=O)[C@H](CCCNC(N)=O)NC(=O)[C@H](Cc3ccc(-c4ccccc4)cc3)NC(=O)[C@H](C(C)C)NC(=O)[C@H](Cc3c[nH]c4ccccc34)NC(=O)[C@H](CC(=O)O)NC2=O)c1 [Compound 1313] ({CH2CO}-N[Phe(3-OMe)]DWV[Bip][Cit][NMeA][dL][Dab]LVTCA-NH2; thioether N-14) | 0.04
14 | CC[C@H](C)[C@@H]1NC(=O)[C@H](Cc2ccc(-c3ccccc3)cc2)NC(=O)[C@H](C(C)C)NC(=O)[C@H](Cc2c[nH]c3ccccc23)NC(=O)[C@H](CC(=O)O)NC(=O)[C@H](Cc2ccc(O)cc2)NC(=O)[C@H](Cc2ccccc2)NC(=O)CSC[C@@H](C(=O)N[C@@H](C)C(N)=O)NC(=O)[C@H]([C@@H](C)O)NC(=O)[C@H](C(C)C)NC(=O)[C@H](CC(C)C)NC(=O)[C@H](CCN)NC(=O)[C@@H](CC(C)C)NC(=O)[C@H](C)N(C)C1=O [Compound 1393] ({CH2CO}-FYDWV[Bip]I[NMeA][dL][Dab]LVTCA-NH2; thioether N-14) | 0.03
15 | CC(C)C[C@@H]1NC(=O)[C@H](CCN)NC(=O)[C@@H](CC(C)C)NC(=O)[C@H](C)N(C)C(=O)[C@H](C(C)C)NC(=O)[C@H](Cc2ccc(-c3ccccc3)cc2)NC(=O)[C@H](C(C)C)NC(=O)[C@H](Cc2c[nH]c3ccccc23)NC(=O)[C@H](CC(=O)O)NC(=O)[C@H](Cc2cccc(Cl)c2)NC(=O)[C@H](CN)NC(=O)CSC[C@@H](C(=O)N[C@@H](C)C(N)=O)NC(=O)[C@H]([C@@H](C)O)NC(=O)[C@H](C(C)C)NC1=O [Compound 1441] ({CH2CO}-[Dap][Phe(3-Cl)]DWV[Bip]V[NMeA][dL][Dab]LVTCA-NH2; thioether N-14) | 0.09
